Data: patent US20250188110A1, “SPECIFIC SMALL MOLECULE INHIBITORS THAT BLOCK KMT9 METHYLTRANSFERASE ACTIVITY AND FUNCTION” (ALBERT-LUDWIGS-UNIVERSITÄT FREIBURG, priority 2021, published 2025)
Where two headings read alike, the source gives them in different places.

What was measured:
[1] = target: T1, KMT9 (Homo sapiens, UniProt Q9Y5N5); experiment: KMT9 thermal shift assay (SyproOrange); assay type: binding
T1 sequence (Q9Y5N5 1-214): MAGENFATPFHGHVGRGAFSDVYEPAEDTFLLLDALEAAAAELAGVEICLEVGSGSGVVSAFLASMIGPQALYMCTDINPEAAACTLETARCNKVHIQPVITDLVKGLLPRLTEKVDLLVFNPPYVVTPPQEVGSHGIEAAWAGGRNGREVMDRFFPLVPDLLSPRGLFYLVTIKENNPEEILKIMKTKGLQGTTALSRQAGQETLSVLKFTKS
T1 sequence (Q9UI30 1-120 isoform Q9UI30-2 partner): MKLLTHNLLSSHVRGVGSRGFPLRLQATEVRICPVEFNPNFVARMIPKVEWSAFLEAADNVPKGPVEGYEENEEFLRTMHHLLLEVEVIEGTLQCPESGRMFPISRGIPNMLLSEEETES
In short: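 Recombinant KMT9 was incubated with compound and SyproOrange at 25° C in 50 mM BTP pH 8.5, 1 mM MgCl2, 1 mM DTT. It was then heated from 20° C to 95° C at 1° C per 15 s with fluorescence read each step. Tm came from a Boltzmann sigmoidal fit; ΔTm relative to DMSO control, binned in 5 K ranges.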

[2] = target: T1, KMT9; experiment: Microscale thermophoresis (MST) KMT9 binding
In short: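 His-tagged KMT9 (20 nM), RED-Tris-NTA labelled, titrated with varying compound concentrations in 25 mM HEPES pH 7.5, 100 mM NaCl, 1 mM DTT, 0.05% Tween. MST at 40% MST and 100% LED power, Nano-RED excitation; Kd binned A ≤10 nM, B 10–100, C 100–1000, D >1000 nM.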

[3] = target: T1, KMT9; experiment: KMT9 methyltransferase inhibition assay, MTaseGlo luminescence (from entry 155); assay type: biochemical; settings: 100 nM KMT9, 5 μM ETF1, 1 μM SAM
Procedure: For the compounds from entry 155 on in Table 1, the following procedure was used to determine IC50 values: The assay was carried out in white, opaque 384-well OptiPlates (PerkinElmer). For IC50 determination, a 2.5x substrate mix (final assay concentrations: 5 μM ETF1, 1 μM SAM and 1x MTaseGlo Reagent), a 2.5x KMT9 solution (final assay concentration 100 nM) and a 5x inhibitor stock 1:1 dilution series (concentration according to the desired range; dilution series was prepared in assay buffer containing 10% DMSO to obtain a final DMSO concentration of 2% in the assay) were prepared. 2 μL of 5x inhibitor stock and 4 μL of 2.5x KMT9 were pipetted, the plate was spun down at 700 rpm for 1 min using a Hettich UNIVERSAL 320 centrifuge and incubated at room temperature (around 25° C.) for 15 min. The reaction was initiated by adding 4 μL of 2.5x substrate mix, the plate was spun down as described before and incubated at 30° C. for 2 h. Afterwards, 10 μL of 2× MTaseGlo Detection solution was added, the plate was centrifuged as described above and incubated for 60 min at room temperature. Luminescence was measured using a PerkinElmer EnVision 2102 Multilabel Reader. Calculation of inhibition and data fitting was carried out as for entries 1-154. described above.
For the results of the methyltransferase inhibition assay shown as “Inhibition” in Table 1, “I” represents an IC50 less than 0.1 μM, “II” represents an IC50 equal or higher than 0.1 μM and less than 1 μM, “III” represents an IC50 equal or higher than 1 µM and less than 10 µM and “IV” represents an IC50 equal or higher than 10 µM

[4] = 500 µM compound, 2 μM KMT9, read-out: Thermal shift (ΔTm)
[5] = His-tag labelled KMT9 20 nM, read-out: MST (Kd)
[6] = MTaseGlo procedure (entries from 155), read-out: Inhibition (IC50)
[7] = ΔTm class, 500 uM compound, 2 μM KMT9, read-out: Thermal shift
[8] = His-tag labelled KMT9 20 nM, Kd class, read-out: MST
[9] = IC50 class, MTaseGlo procedure (entries from 155 on), read-out: Inhibition
[10] = ΔTm, 500 µM compound, 2 μM KMT9, 5X SO, read-out: Thermal shift
[11] = microscale thermophoresis, His-tag labelled KMT9 (20 nM), read-out: MST
[12] = from entry 155: MTaseGlo assay, read-out: Inhibition

`CNc1ncnc2c1ccn2[C@@H]1C[C@H](c2ccc(O)cc2)[C@@H](O)[C@H]1O` [Compound 406, (1S,2R,3R,5R)-3-(4-hydroxyphenyl)-5-(4-(methylamino)-7H-pyrrolo[2,3-a]pyrimidin-7-yl) cyclopentane-1,2-diol] was tested, and the ΔTm at 500 µM [1, 4] was ≤ 10 °C, the Kd [2, 5] was > 1000 nM and the IC50 [3, 6] was > 10000 nM.
`Nc1ncnc2c1ccn2[C@@H]1C[C@H](c2cccc(Cl)c2)[C@@H](O)[C@H]1O` [Compound 407, (1R,2S,3R,5R)-3-(4-amino-7H-pyrrolo[2,3-d]pyrimidin-7-yl)-5-(3-chlorophenyl) cyclopentane-1,2-diol] was tested, and the ΔTm at 500 µM [1, 4] was ≤ 10 °C, the Kd [2, 5] was > 1000 nM and the IC50 [3, 6] was > 10000 nM.
For `CC(=O)c1cccc([C@H]2C[C@@H](n3ccc4c(N)ncnc43)[C@H](O)[C@@H]2O)c1` [Compound 408, 1-(3-((1R,2R,3S,4R)-4-(4-amino-7H-pyrrolo[2,3-d]pyrimidin-7-yl)-2,3-dihydroxycyclopentyl)phenyl)ethan-1-one], the ΔTm at 500 µM [1, 4] was ≤ 10 °C, the Kd [2, 5] was > 1000 nM and the IC50 [3, 6] was > 10000 nM.
In the case of `Nc1ccc([C@H]2C[C@@H](n3ccc4c(N)ncnc43)[C@H](O)[C@@H]2O)cc1` [Compound 409, (1r,2s,3r,5r)-3-(4-amino-7H-pyrrolo[2,3-d]pyrimidin-7-yl)-5-(4-aminophenyl) cyclopentane-1,2-diol], the ΔTm at 500 µM [1, 7] is reported as ≤ 10 °C, the Kd [2, 8] is reported as > 1000 nM and the IC50 [3, 9] is reported as > 10000 nM.
With `Nc1cccc([C@H]2C[C@@H](n3ccc4c(N)ncnc43)[C@H](O)[C@@H]2O)c1` [Compound 410, (1R,2S,3R,5R)-3-(4-amino-7H-pyrrolo[2,3-d]pyrimidin-7-yl)-5-(3-aminophenyl) cyclopentane-1,2-diol] the ΔTm at 500 µM [1, 4] was ≤ 10 °C, the Kd [2, 5] was > 1000 nM and the IC50 [3, 6] was > 10000 nM.
`CN1CCC([C@H]2C[C@@H](n3cc(-c4ccn(Cc5ccccc5)n4)c4cnc(Cl)nc43)[C@H](O)[C@@H]2O)CC1` [Compound 491, (1R,2S,3R,5R)-3-(5-(1-benzyl-1H-pyrazol-3-yl)-2-chloro-7H-pyrrolo[2,3-d]pyrimidin-7-yl)-5-(1-methylpiperidin-4-yl)cyclopentane-1,2-diol] gave a ΔTm at 500 µM [1, 7] of 15 to 20 °C, a Kd [2, 8] of 100 to 1000 nM and an IC50 [3, 9] of 100 to 1000 nM.
In the case of `CN1CCC([C@H]2C[C@@H](n3cc(-c4ccn(S(=O)(=O)c5ccccc5)n4)c4c(N)nc(Cl)nc43)[C@H](O)[C@@H]2O)CC1` [Compound 492, (1R,2S,3R,5R)-3-(4-Amino-2-chloro-5-(1-(phenylsulfonyl)-1H-pyrazol-3-yl)-7H-pyrrolo[2,3-d]pyrimidin-7-yl)-5-(1-methylpiperidin-4-yl)cyclopentane-1,2-diol], the ΔTm at 500 µM [1, 7] is reported as > 20 °C, the Kd [2, 8] is reported as ≤ 10 nM and the IC50 [3, 9] is reported as 100 to 1000 nM.
For `CN1CC=C([C@H]2C[C@@H](n3cc(-c4nccs4)c4c(N)nc(Cl)nc43)[C@H](O)[C@@H]2O)CC1` [Compound 493, (1R,2S,3R,5R)-3-(4-Amino-2-chloro-5-(thiazol-2-yl)-7H-pyrrolo[2,3-d]pyrimidin-7-yl)-5-(1-methyl-1,2,3,6-tetrahydropyridin-4-yl)cyclopentane-1,2-diol], the ΔTm at 500 µM [1, 4] was 15 to 20 °C, the Kd [2, 5] was ≤ 10 nM and the IC50 [3, 6] was 100 to 1000 nM.
Work on `CN1CCC([C@H]2C[C@@H](n3cc(-c4ccn(S(=O)(=O)c5ccccc5)n4)c4cnc(Cl)nc43)[C@H](O)[C@@H]2O)CC1` [Compound 495, (1R,2S,3R,5R)-3-(2-Chloro-5-(1-(phenylsulfonyl)-1H-pyrazol-3-yl)-7H-pyrrolo[2,3-d]pyrimidin-7-yl)-5-(1-methylpiperidin-4-yl)cyclopentane-1,2-diol] yielded a ΔTm at 500 µM [1, 7] of 15 to 20 °C, a Kd [2, 8] of 10 to 100 nM and an IC50 [3, 9] of 1000 to 10000 nM.
For `CN1CCC([C@H]2C[C@@H](n3cc(-c4nc(Cc5ccccc5)cs4)c4cnc(Cl)nc43)[C@H](O)[C@@H]2O)CC1` [Compound 496, (1R,2S,3R,5R)-3-(5-(4-benzylthiazol-2-yl)-2-chloro-7H-pyrrolo[2,3-d]pyrimidin-7-yl)-5-(1-methylpiperidin-4-yl)cyclopentane-1,2-diol], the ΔTm at 500 µM [1, 7] was 15 to 20 °C, the Kd [2, 8] was 10 to 100 nM and the IC50 [3, 9] was 1000 to 10000 nM.
Compound `O[C@@H]1[C@H](O)[C@@H](C2CCN(CC3CC3)CC2)C[C@H]1n1cc(-c2nc(Cc3ccccc3)cs2)c2cnc(Cl)nc21` [Compound 497, (1R,2S,3R,5R)-3-(5-(4-Benzylthiazol-2-yl)-2-chloro-7H-pyrrolo[2,3-d]pyrimidin-7-yl)-5-(1-(cyclopropylmethyl)piperidin-4-yl)cyclopentane-1,2-diol] has a ΔTm at 500 µM [1, 7] of 10 to 15 °C, a Kd [2, 8] of 10 to 100 nM and an IC50 [3, 9] of 1000 to 10000 nM.
In the case of `O[C@@H]1[C@H](O)[C@@H](C2CCN(CCc3ccccc3)CC2)C[C@H]1n1cc(-c2nc(Cc3ccccc3)cs2)c2cnc(Cl)nc21` [Compound 498, (1R,2S,3R,5R)-3-(5-(4-Benzylthiazol-2-yl)-2-chloro-7H-pyrrolo[2,3-d]pyrimidin-7-yl)-5-(1-phenethylpiperidin-4-yl)cyclopentane-1,2-diol], the ΔTm at 500 µM [1, 7] is reported as 10 to 15 °C, the Kd [2, 8] is reported as 10 to 100 nM and the IC50 [3, 9] is reported as 1000 to 10000 nM.
For `O[C@@H]1[C@H](O)[C@@H](C2CCN(CC(F)(F)F)CC2)C[C@H]1n1cc(-c2nc(Cc3ccccc3)cs2)c2cnc(Cl)nc21` [Compound 499, (1R,2S,3R,5R)-3-(5-(4-Benzylthiazol-2-yl)-2-chloro-7H-pyrrolo[2,3-d]pyrimidin-7-yl)-5-(1-(2,2,2-trifluoroethyl)piperidin-4-yl)cyclopentane-1,2-diol], the ΔTm at 500 µM [1, 7] was ≤ 10 °C, the Kd [2, 8] was > 1000 nM and the IC50 [3, 9] was > 10000 nM.
For `Nc1nc(Cl)nc2c1c(-c1ccn(Cc3ccccc3)n1)cn2[C@@H]1C[C@H](C2CCNCC2)[C@@H](O)[C@H]1O` [Compound 501, (1R,2S,3R,5R)-3-(4-Amino-5-(1-benzyl-1H-pyrazol-3-yl)-2-chloro-7H-pyrrolo[2,3-d]pyrimidin-7-yl)-5-(piperidin-4-yl)cyclopentane-1,2-diol], the ΔTm at 500 µM [1, 10] was > 20 °C, the Kd [2, 11] was ≤ 10 nM and the IC50 [3, 12] was < 100 nM.
For `CN1CCC([C@H]2C[C@@H](n3cc(-c4ccn(Cc5ccccc5)n4)c4c(N)nc(Cl)nc43)[C@H](O)[C@@H]2O)CC1` [Compound 502, (1R,2S,3R,5R)-3-(4-amino-5-(1-benzyl-1H-pyrazol-3-yl)-2-chloro-7H-pyrrolo[2,3-d]pyrimidin-7-yl)-5-(1-methylpiperidin-4-yl)cyclopentane-1,2-diol], the ΔTm at 500 µM [1, 10] was > 20 °C, the Kd [2, 11] was ≤ 10 nM and the IC50 [3, 12] was 100 to 1000 nM.
With `Nc1ncnc2c1c(-c1nc(Cc3ccccc3)cs1)cn2[C@@H]1C[C@H](C2=CCCNC2)[C@@H](O)[C@H]1O` [Compound 503, (1R,2S,3R,5R)-3-(4-amino-5-(4-benzylthiazol-2-yl)-7H-pyrrolo[2,3-d]pyrimidin-7-yl)-5-(1,2,5,6-tetrahydropyridin-3-yl)cyclopentane-1,2-diol] the ΔTm at 500 µM [1, 10] was 15 to 20 °C, the Kd [2, 11] was 100 to 1000 nM and the IC50 [3, 12] was 1000 to 10000 nM.
With `CCN1CCC([C@H]2C[C@@H](n3cc(-c4nc(Cc5ccccc5)cs4)c4c(N)nc(Cl)nc43)[C@H](O)[C@@H]2O)CC1` [Compound 504, (1R,2S,3R,5R)-3-[4-amino-5-(4-benzyl-1,3-thiazol-2-yl)-2-chloropyrrolo[2,3-d]pyrimidin-7-yl]-5-(1-ethylpiperidin-4-yl)cyclopentane-1,2-diol] the ΔTm at 500 µM [1, 7] was > 20 °C, the Kd [2, 8] was ≤ 10 nM and the IC50 [3, 9] was 100 to 1000 nM.
